Reference: patent publication US10800725B2, “Arylpropionyl-triketone antibacterial agents” (priority 2010, dated 2020)
≈ marks a conversion by molar mass, not a printed value.

Legend:
[1] = molecular target: E. coli RNA polymerase σ70 holoenzyme (Escherichia coli (strain K12), UniProt P0A8T7+P0A8V2); assay: Fluorescence-detected RNA polymerase assay, E. coli RNAP; assay type: biochemical
Protocol: (§1) Fluorescence-detected RNA polymerase assays with E. coli RNA polymerase were performed by a modification of the procedure of Kuhlman et al., 2004 [Kuhlman, P., Duff, H. & Galant, A. (2004) A fluorescence-based assay for multisubunit DNA-dependent RNA polymerases. Anal. Biochem. 324, 183-190]. Reaction mixtures contained (20 μl): 0-100 nM test compound, 75 nM E. coli RNA polymerase σ^70 holoenzyme, 20 nM 384 bp DNA fragment containing the bacteriophage T4 N25 promoter, 100 μM ATP, 100 μM GTP, 100 μM UTP, 100 μM CTP, 50 mM Tris-HCl, pH 8.0, 100 mM KCl, 10 mM MgCl2, 1 mM DTT, 10 μg/ml bovine serum albumin, and 5.5% glycerol. Reaction components other than DNA and NTPs were pre-incubated for 10 min at 37° C. Reactions were carried out by addition of DNA and incubation for 5 min at 37° C., followed by addition of NTPs and incubation for 60 min at 37° C. DNA was removed by addition of 1 μl 5 mM CaCl2 and 2 U DNaseI (Ambion, Inc.), followed by incubation for 90 min at 37° C. RNA was quantified by addition of 100 μl RiboGreen RNA Quantitation Reagent (Invitrogen, Inc.; 1:500 dilution in Tris-HCl, pH 8.0, 1 mM EDTA), followed by incubation for 10 min at 25° C., followed by measurement of fluorescence intensity [excitation wavelength=485 nm and emission wavelength=535 nm; QuantaMaster QM1 spectrofluorometer (PTI, Inc.)]. IC50 is defined as the concentration of inhibitor resulting in 50% inhibition of RNA polymerase activity.

[2] = test system: Enterococcus faecalis ATCC 19433; assay: MIC, spiral gradient endpoint assay; conditions: ATCC19433, read-out: MIC E. faecalis 19433
[3] = molecular target: M. tuberculosis RNA polymerase core enzyme + σA (Mycobacterium tuberculosis (strain ATCC 25618 / H37Rv), UniProt P9WGY7+P9WGY9); assay: Fluorescence-detected RNA polymerase assay, M. tuberculosis RNAP; assay type: biochemical
Protocol: as §1
(§2) Fluorescence-detected RNA polymerase assays with M. tuberculosis RNA polymerase were performed as in Example 21.1, using reaction mixtures containing (20 μl): 0-100 nM test compound, 75 nM M. tuberculosis RNA polymerase core enzyme, 300 nM M. tuberculosis σ^A, 20 nM 384 bp DNA fragment containing the bacteriophage T4 N25 promoter, 100 μM ATP, 100 μM GTP, 100 μM UTP, 100 μM CTP, 40 mM Tris-HCl, pH 8.0, 80 mM NaCl, 5 mM MgCl2, 2.5 mM DTT, and 12.7% glycerol. IC50 is defined as the concentration of inhibitor resulting in 50% inhibition of RNA polymerase activity.

[4] = test system: Escherichia coli D21f2tolC; assay: MIC, spiral gradient endpoint assay; conditions: read-out: MIC E. coli D21f2tolC
[5] = molecular target: S. aureus RNA polymerase core enzyme + σA (Staphylococcus aureus (strain NCTC 8325 / PS 47), UniProt P47768+Q2G0N5); assay: Fluorescence-detected RNA polymerase assay, S. aureus RNAP; assay type: biochemical
Protocol: as §1
as §2, with “S. aureus” for “M. tuberculosis”

[6] = test system: Mycobacterium tuberculosis H37Rv; assay: MIC, microplate Alamar Blue assay; conditions: read-out: MIC M. tuberculosis H37Rv
[7] = test system: Staphylococcus aureus ATCC 12600; assay: MIC, spiral gradient endpoint assay; conditions: ATCC12600, read-out: MIC S. aureus 12600

SMILES	IC50 [1] [nM]	MIC [2] [µg/mL]	IC50 [3] [nM]	MIC [4] [µg/mL]	IC50 [5] [nM]	MIC [6] [µg/mL]	MIC [7] [µg/mL]
Cc1ccccc1CCC(=O)C1=C(O)C(CCC(C)C)=C(O)C(CCC(C)C)(CCC(C)C)C1=O [Compound 7, 3,5-dihydroxy-2-(3-(2-methylphenyl)propanoyl)-4,6,6-triisopentylcyclohexa-2,4-dienone]	210	1 (≈ 2.07 µM)	170	7 (≈ 14.5 µM)	1100	50 (≈ 104 µM)	0.5 (≈ 1.04 µM)
Cc1cccc(CCC(=O)C2=C(O)C(CCC(C)C)=C(O)C(CCC(C)C)(CCC(C)C)C2=O)c1 [Compound 8, 3,5-dihydroxy-2-(3-(3-methylphenyl)propanoyl)-4,6,6-triisopentylcyclohexa-2,4-dienone]	420	1 (≈ 2.07 µM)	600	12 (≈ 24.9 µM)	2200	> 50	4 (≈ 8.29 µM)
Cc1ccc(CCC(=O)C2=C(O)C(CCC(C)C)=C(O)C(CCC(C)C)(CCC(C)C)C2=O)cc1 [Compound 9, 3,5-dihydroxy-2-(3-(4-methylphenyl)propanoyl)-4,6,6-triisopentylcyclohexa-2,4-dienone]	220	1 (≈ 2.07 µM)	290	4.4 (≈ 9.12 µM)	840	25 (≈ 51.8 µM)	0.5 (≈ 1.04 µM)
CC(C)CCC1=C(O)C(CCC(C)C)(CCC(C)C)C(=O)C(C(=O)CCc2ccc(F)cc2)=C1O [Compound 10, 3,5-dihydroxy-2-(3-(4-fluorophenyl)propanoyl)-4,6,6-triisopentylcyclohexa-2,4-dienone]	530	2.7 (≈ 5.55 µM)	640	2.7 (≈ 5.55 µM)	2200	50 (≈ 103 µM)	0.5 (≈ 1.03 µM)
CC(C)CCC1=C(O)C(CCC(C)C)(CCC(C)C)C(=O)C(C(=O)CCc2ccc(Br)cc2)=C1O [Compound 11, 3,5-dihydroxy-2-(3-(4-bromophenyl)propanoyl)-4,6,6-triisopentylcyclohexa-2,4-dienone]	890	2.6 (≈ 4.75 µM)	780	3.3 (≈ 6.03 µM)	3300	50 (≈ 91.3 µM)	0.8 (≈ 1.46 µM)
CC(C)CCC1=C(O)C(CCC(C)C)(CCC(C)C)C(=O)C(C(=O)CCc2ccc(C(F)(F)F)cc2)=C1O [Compound 12, 3,5-dihydroxy-2-(3-(4-trifluoromethylphenyl)propanoyl)-4,6,6-triisopentylcyclohexa-2,4-dienone]	120	0.5 (≈ 0.932 µM)	220	4.3 (≈ 8.01 µM)	460	25 (≈ 46.6 µM)	0.6 (≈ 1.12 µM)
CCCC1=C(O)C(CCC)(CCC)C(=O)C(C(=O)CCc2ccc(Cl)cc2)=C1O [Compound 13, 3,5-dihydroxy-2-(3-(4-chlorophenyl)propanoyl)-4,6,6-tripropylcyclohexa-2,4-dienone]	7800	2.2 (≈ 5.25 µM)	1400	0.8 (≈ 1.91 µM)	5300	> 50	0.7 (≈ 1.67 µM)
CCCCC1=C(O)C(CCCC)(CCCC)C(=O)C(C(=O)CCc2ccc(Cl)cc2)=C1O [Compound 14, 3,5-dihydroxy-2-(3-(4-chlorophenyl)propanoyl)-4,6,6-tributylcyclohexa-2,4-dienone]	1100	1.3 (≈ 2.82 µM)	680	0.6 (≈ 1.3 µM)	3100	> 50	0.5 (≈ 1.08 µM)
